Tests used:
[1] = Selectivity index, ratio of CC50 for human HepG2 cells to IC50 for Leishmania donovani MHOM/IN/00/DEVI promastigotes; assay type: functional
[2] = Cytotoxicity against human HepG2 cells assessed as reduction in cell viability incubated for 72 hrs by MTT assay; assay type: cell-based
Leishmania donovani [3] = test: Antileishmanial activity against Leishmania donovani MHOM/IN/00/DEVI promastigotes assessed as reduction in parasite growth incubated for 72 hrs by MTT assay; assay type: functional, organism-based
Leishmania donovani [4] = test: Antileishmanial activity against Leishmania donovani MHOM/IN/00/DEVI intracellular amastigotes infected in human THP1 cells assessed as reduction in parasite-infected macrophages incubated for 120 hrs by Giemsa staining based microscopy; assay type: functional, organism-based; conditions: THP-1, 120 h
[5] = Cytotoxicity against human THP1 cells assessed as reduction in cell viability incubated for 72 hrs by MTT assay; assay type: cell-based; conditions: THP-1 cells

| IC50 (Leishmania donovani [4]) [µM] | Structure (SMILES) | Ratio CC50/IC50 [1] | CC50 at 72 h [2] [µM] | IC50 (Leishmania donovani [3]) [µM] | CC50 at 72 h [5] [µM] |
| --- | --- | --- | --- | --- | --- |
| – | O=c1cc(Sc2ccccc2Cl)c2cccc([N+](=O)[O-])c2[nH]1 | >0.4 | > 1.25 | 3.5 | – |
| – | Nc1cc(=O)[nH]c2c([N+](=O)[O-])cccc12 | – | > 125 | > 50 | – |
| – | O=c1cc(N2CCOCC2)c2cccc([N+](=O)[O-])c2[nH]1 | – | 86.2 | 42.1 | – |
| – | O=c1cc(N2CCNCC2)c2cccc([N+](=O)[O-])c2[nH]1 | – | 2.4 | > 50 | – |
| – | CCCCNc1cc(=O)[nH]c2c([N+](=O)[O-])cccc12 | – | 12.2 | 21.4 | – |
| – | CC(C)(C)OC(=O)NCCOCCOCCNc1cc(=O)[nH]c2c([N+](=O)[O-])cccc12 | – | 34.8 | > 50 | – |
| – | NCCOCCOCCNc1cc(=O)[nH]c2c([N+](=O)[O-])cccc12 | – | 123 | > 50 | – |
| – | O=c1cc(Nc2ccccc2)c2cccc([N+](=O)[O-])c2[nH]1 | – | 1.8 | > 50 | – |
| – | O=c1cc(Sc2ccccc2)c2cccc([N+](=O)[O-])c2[nH]1 | >1.3 | > 12.5 | 9.3 | – |
| – | O=c1cc(Oc2ccccc2)c2cccc([N+](=O)[O-])c2[nH]1 | >0.9 | > 12.5 | 14 | – |
| – | COc1ccccc1Sc1cc(=O)[nH]c2c([N+](=O)[O-])cccc12 | – | – | > 10 | – |
| – | COc1cccc(Sc2cc(=O)[nH]c3c([N+](=O)[O-])cccc23)c1 | – | – | > 10 | – |
| – | COc1ccc(Sc2cc(=O)[nH]c3c([N+](=O)[O-])cccc23)cc1 | – | – | > 10 | – |
| – | O=c1cc(Sc2ccccc2C(F)(F)F)c2cccc([N+](=O)[O-])c2[nH]1 | >2.22 | > 7.8 | 3.5 | – |
| – | O=c1cc(Sc2cccc(C(F)(F)F)c2)c2cccc([N+](=O)[O-])c2[nH]1 | – | – | > 10 | – |
| > 12.5 | O=c1cc(Sc2ccc(C(F)(F)F)cc2)c2cccc([N+](=O)[O-])c2[nH]1 | >3.3 | > 12.5 | 3.8 | > 12.5 |
| – | O=c1cc(Sc2cccc(Cl)c2)c2cccc([N+](=O)[O-])c2[nH]1 | – | – | > 10 | – |
| – | O=c1cc(Sc2ccc(Cl)cc2)c2cccc([N+](=O)[O-])c2[nH]1 | – | – | > 10 | – |
| – | O=c1cc(Sc2ccc(Cl)cc2Cl)c2cccc([N+](=O)[O-])c2[nH]1 | >2.1 | > 7.8 | 3.8 | – |
| – | O=c1cc(Sc2ccc(Br)cc2)c2cccc([N+](=O)[O-])c2[nH]1 | >0.9 | > 3.9 | 4.2 | – |
| – | O=c1cc(Sc2ccccc2F)c2cccc([N+](=O)[O-])c2[nH]1 | – | – | > 10 | – |
| – | O=c1cc(Sc2cccc(F)c2)c2cccc([N+](=O)[O-])c2[nH]1 | – | – | > 10 | – |
| – | O=c1cc(Sc2ccc(F)cc2)c2cccc([N+](=O)[O-])c2[nH]1 | – | – | > 10 | – |

| IC50 (Leishmania donovani [4]) [µM] | Structure (SMILES) | Ratio CC50/IC50 [1] | CC50 at 72 h [2] [µM] | IC50 (Leishmania donovani [3]) [µM] | CC50 at 72 h [5] [µM] |
| --- | --- | --- | --- | --- | --- |
| – | Cc1ccccc1Sc1cc(=O)[nH]c2c([N+](=O)[O-])cccc12 | – | – | > 10 | – |
| – | Cc1ccc(Sc2cc(=O)[nH]c3c([N+](=O)[O-])cccc23)cc1 | – | – | > 10 | – |
| – | Nc1ccccc1Sc1cc(=O)[nH]c2c([N+](=O)[O-])cccc12 | – | – | > 10 | – |
| – | COc1ccccc1Oc1cc(=O)[nH]c2c([N+](=O)[O-])cccc12 | – | – | > 10 | – |
| – | COc1cccc(Oc2cc(=O)[nH]c3c([N+](=O)[O-])cccc23)c1 | – | – | > 10 | – |
| – | COc1ccc(Oc2cc(=O)[nH]c3c([N+](=O)[O-])cccc23)cc1 | – | – | > 10 | – |
| – | O=c1cc(Oc2ccccc2C(F)(F)F)c2cccc([N+](=O)[O-])c2[nH]1 | >1.6 | > 15.6 | 10 | – |
| – | O=c1cc(Oc2cccc(C(F)(F)F)c2)c2cccc([N+](=O)[O-])c2[nH]1 | >0.7 | > 7.8 | > 10 | – |
| – | O=c1cc(Oc2ccc(C(F)(F)F)cc2)c2cccc([N+](=O)[O-])c2[nH]1 | >0.9 | > 7.8 | 8.4 | – |
| – | O=c1cc(Oc2ccccc2Cl)c2cccc([N+](=O)[O-])c2[nH]1 | – | – | > 10 | – |
| – | O=c1cc(Oc2cccc(Cl)c2)c2cccc([N+](=O)[O-])c2[nH]1 | – | – | > 10 | – |
| – | O=c1cc(Oc2ccc(Cl)cc2)c2cccc([N+](=O)[O-])c2[nH]1 | >1.1 | > 3.9 | 3.7 | – |
| – | O=c1cc(Oc2ccccc2Br)c2cccc([N+](=O)[O-])c2[nH]1 | >0.96 | > 7.8 | 8.1 | – |
| – | O=c1cc(Oc2cccc(Br)c2)c2cccc([N+](=O)[O-])c2[nH]1 | – | – | > 10 | – |
| – | O=c1cc(Oc2ccc(Br)cc2)c2cccc([N+](=O)[O-])c2[nH]1 | – | – | > 5 | – |
| – | O=c1cc(Oc2ccccc2F)c2cccc([N+](=O)[O-])c2[nH]1 | – | – | > 10 | – |
| – | O=c1cc(Oc2cccc(F)c2)c2cccc([N+](=O)[O-])c2[nH]1 | – | – | > 10 | – |
| – | Cc1ccccc1Oc1cc(=O)[nH]c2c([N+](=O)[O-])cccc12 | – | – | > 10 | – |
| – | Cc1cccc(Oc2cc(=O)[nH]c3c([N+](=O)[O-])cccc23)c1 | – | – | > 10 | – |
| > 12.5 | Cc1ccc(Oc2cc(=O)[nH]c3c([N+](=O)[O-])cccc23)cc1 | >4.2 | > 25 | 6 | > 12.5 |
| – | Cc1cc(Oc2cc(=O)[nH]c3c([N+](=O)[O-])cccc23)ccc1Cl | >2.6 | > 15.6 | 6 | – |
| – | COc1cccc2c1C(=O)c1c(O)c3c(c(O)c1C2=O)C[C@@](O)(C(=O)CO)C[C@@H]3O[C@H]1C[C@H](N)[C@H](O)[C@H](C)O1 [DOXORUBICIN] | – | – | – | 0.008 |
| > 20 | N=C(N)c1ccc(OCCCCCOc2ccc(C(=N)N)cc2)cc1 [PENTAMIDINE] | 0.4 | – | – | 31.2 |

From ChEMBL document CHEMBL3407329, “Looking for new antileishmanial derivatives in 8-nitroquinolin-2(1H)-one series” (Eur J Med Chem, 2015)
